ChEMBL document CHEMBL3616393, “Recent progress on MAP kinase pathway inhibitors” (Bioorg Med Chem Lett, 2015)

Assays:
[1] = target: T1, Mitogen-activated protein kinase 3 (Homo sapiens, UniProt P27361); assay: Inhibition of ERK1 (unknown origin) after 45 mins by IMAP assay
[2] = target: T1, Mitogen-activated protein kinase 3; assay: Competitive inhibition of ERK1 (unknown origin) in presence of ATP
[3] = system: Homo sapiens; assay: In vivo inhibition of B-RAF in inhibitor-pretreated patient relative to control; type: functional
[4] = system: Homo sapiens; assay: In vivo inhibition of B-RAF in naive patient relative to control; type: functional
[5] = target: Serine/threonine-protein kinase B-raf (Homo sapiens) (UniProt P15056); assay: Binding affinity to B-RAF (unknown origin) assessed as dissociation half life
[6] = system: Homo sapiens; assay: Toxicity in patient administered daily; type: organism-based; conditions: in vivo
[7] = Plasma half life in po dosed Sprague-Dawley rat; type: ADME, organism-based
[8] = Effective half life in patient; type: ADME, organism-based; conditions: human, in vivo; read-out: t1/2eff

T1 sequence (P27361 whole entry): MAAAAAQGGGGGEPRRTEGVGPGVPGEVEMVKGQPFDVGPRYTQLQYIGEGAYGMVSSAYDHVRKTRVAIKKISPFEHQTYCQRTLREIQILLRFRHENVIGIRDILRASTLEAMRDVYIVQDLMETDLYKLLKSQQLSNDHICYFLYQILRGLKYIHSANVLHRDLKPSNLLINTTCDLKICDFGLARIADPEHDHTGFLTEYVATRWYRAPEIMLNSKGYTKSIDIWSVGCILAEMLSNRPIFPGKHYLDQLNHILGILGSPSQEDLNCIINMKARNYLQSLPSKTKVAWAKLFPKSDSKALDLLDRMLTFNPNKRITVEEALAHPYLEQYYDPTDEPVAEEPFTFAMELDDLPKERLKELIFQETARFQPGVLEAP
Sequence of Serine/threonine-protein kinase B-raf (Homo sapiens) (P15056 whole entry): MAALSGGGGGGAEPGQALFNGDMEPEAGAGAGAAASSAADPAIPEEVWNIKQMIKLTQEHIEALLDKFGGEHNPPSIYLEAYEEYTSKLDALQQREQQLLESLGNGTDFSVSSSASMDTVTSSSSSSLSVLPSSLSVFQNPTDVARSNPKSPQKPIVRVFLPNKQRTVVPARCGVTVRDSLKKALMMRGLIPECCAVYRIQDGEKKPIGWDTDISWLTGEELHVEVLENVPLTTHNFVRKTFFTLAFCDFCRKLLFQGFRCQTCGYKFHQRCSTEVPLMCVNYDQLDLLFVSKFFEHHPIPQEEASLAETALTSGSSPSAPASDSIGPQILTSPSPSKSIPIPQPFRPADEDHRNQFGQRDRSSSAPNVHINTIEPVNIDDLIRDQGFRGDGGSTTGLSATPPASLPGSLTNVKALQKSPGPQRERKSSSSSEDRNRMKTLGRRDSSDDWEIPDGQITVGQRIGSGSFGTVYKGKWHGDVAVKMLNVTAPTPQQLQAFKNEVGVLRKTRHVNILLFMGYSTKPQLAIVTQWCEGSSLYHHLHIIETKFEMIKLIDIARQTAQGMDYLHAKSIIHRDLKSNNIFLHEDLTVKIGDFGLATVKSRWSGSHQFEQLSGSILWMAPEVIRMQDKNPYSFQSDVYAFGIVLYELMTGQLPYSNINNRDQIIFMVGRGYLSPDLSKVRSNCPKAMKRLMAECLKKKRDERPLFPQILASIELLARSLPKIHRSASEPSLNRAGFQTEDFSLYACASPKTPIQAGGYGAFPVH

O=C(Nc1ccc2[nH]nc(-c3ccncc3)c2c1)[C@@H]1CCN(CC(=O)N2CCN(c3ccc(-c4ncccn4)cc3)CC2)C1
IC50 [1]: 4 nM

CC(C)Nc1cc(-c2c[nH]c(C(=O)N[C@H](CO)c3cccc(Cl)c3)c2)c(Cl)cn1
INH [2]: 300 pM

Cn1cnc2c(F)c(Nc3ccc(Br)cc3F)c(C(=O)NOCCO)cc21 [BINIMETINIB]
inhibition (INH) [3]: 18% | inhibition (INH) [4]: 88%

COC(=O)N[C@@H](C)CNc1nccc(-c2cn(C(C)C)nc2-c2cc(Cl)cc(NS(C)(=O)=O)c2F)n1 [ENCORAFENIB]
inhibition (INH) [3]: 11% | T1/2 [5]: > 24 h | MTD [6]: 600 mg | inhibition (INH) [4]: 58%

CC(=O)Nc1cccc(-n2c(=O)n(C3CC3)c(=O)c3c(Nc4ccc(I)cc4F)n(C)c(=O)c(C)c32)c1 [TRAMETINIB]
half-life [7]: > 30 h | half-life [8]: > 40 h
